Measurements published in patent US20190125735A1, “INHIBITION OF P38 MAPK FOR THE TREATMENT OF CANCER” (Board of Regents, The University of Texas System, priority 2015, published 2019).

Test system: ZEB1
Assay: ZEB1 mRNA and protein levels (qRT-PCR, immunoblotting)
Format: cell-based, human
From the text: First, the elevated levels of FOXC2 and ZEB1 transcripts were confirmed in HMLER-FOXC2 cells versus HMLER-vector cells by qRT-PCR (FIG. 19A). […] Accordingly, shRNA-mediated suppression of FOXC2 in a panel of cell lines yielded a >50-fold decrease in ZEB1 mRNA (FIG. 19E) and a >80% reduction in ZEB1 protein levels (FIG. 19F). […] Conversely, a >50-fold increase as found in miR-200b, and a >1000-fold increase in miR-200c, following FOXC2 knockdown compared to control shRNA-transduced counterparts (FIG. 19H). To ascertain whether FOXC2 directly regulates miR-200 or ZEB1 expression, the promoter regions of both miR-200 clusters on chromosomes 1 and 12 as well as the ZEB1 promoter were analyzed, and a conserved FOXC2-binding element within the ZEB1 promoter was identified. […] Furthermore, in support of the notion that p38-mediated phosphorylation of FOXC2 regulates ZEB1 expression, elevated ZEB1 protein levels were only detected in HMLER-FOXC2 and HMLER-FOXC2(S367E) cells (FIG. 19L, lanes 2 and 3), but not in HMLER-FOXC2(S367A) cells (FIG. 19L, lane 4).
Immunoblotting and immunofluorescence (Mani et al., 2008) were performed as previously described. Primary antibodies were as follows: β-actin (Sigma, St Louis, Mo., USA; A3853), mouse anti-human FOXC2 (Dr. Naoyuki Miura, Hamamatsu University School of Medicine, Japan), goat polyclonal anti-FOXC2 (Santa Cruz Biotechnology, Dallas, Tex., USA; sc-21397), p-p38 (Cell Signaling, Danvers, Mass., USA; 4511), p38 (Cell Signaling; 9211), E-cadherin (BD Biosciences, San Jose, Calif., USA; 61081), fibronectin (BD Biosciences; 610077), vimentin (Novus Biologicals, Littleton, Colo., USA; NB200-623), ZEB1 (Novus Biologicals; NBP1-05987), and HA (Covance, Princeton, N.J., USA; MMS-101P).
qRT-PCR was performed using SYBR Green (Applied Biosystems, Waltham, Mass., USA) for mRNAs and Taqman (Applied Biosystems) for microRNAs as described previously (Hollier et al., 2013).

In the case of C[S+]([O-])c1ccc(-c2nc(-c3ccc(F)cc3)c(-c3ccncc3)[nH]2)cc1 (stereo not drawn) [SB203580, 4-(4-Fluorophenyl)-2-(4-methylsulfinylphenyl)-5-(4-pyridyl) 1H-imidazole], the ZEB1 protein levels (HMLER-FOXC2(S367E) cells) is reported as “remained relatively high”, the ZEB1 protein levels (HMLER-FOXC2 cells) is reported as “decreased” and the “Reduction of ZEB1 mRNA and protein levels compared to vehicle” value (SB203580 treatment) is reported as greater than 60 fold.
